Data on 21 compounds can be found in PubChem BioAssay AID248 (DTP/NCI, 2004).

For the experiment, the system named is L1210 leukemia ip in BDF1 mice, survival T/C. In words: NCI In Vivo Anticancer Drug Screen. Data for tumor model L1210 Leukemia (intraperitoneal) in B6D2F1 (BDF1) mice. The settings on record: endpoint: mean survival time, higher = longer survival. The method, boiled down: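 Ratio derived from survival: compound-dosed mice over vehicle-dosed mice, all bearing a transplantable tumor.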

Where [1] appears, read: dose: 100.0 mg/kg/injection, schedule: Q01DX001 (ip), vehicle: saline.
Where [2] appears, read: dose: 400.0 mg/kg/injection, schedule: Q01DX001 (ip), vehicle: saline.
Setting [3] is: dose: 100.0 mg/kg/injection, schedule: Q04DX003 (ip), vehicle: saline with Tween-80.
[4] abbreviates: dose: 200.0 mg/kg/injection, schedule: Q04DX003 (ip), vehicle: saline with Tween-80.
Where [5] appears, read: dose: 400.0 mg/kg/injection, schedule: Q04DX003 (ip), vehicle: saline with Tween-80.
Setting [6] is: dose: 100.0 mg/kg/injection, schedule: Q04DX003 (ip), vehicle: saline.
Setting [7] is: dose: 200.0 mg/kg/injection, schedule: Q04DX003 (ip), vehicle: saline.
Setting [8] is: dose: 100.0 mg/kg/injection, schedule: Q01DX001 (ip), vehicle: saline with Tween-80.
Setting [9] is: dose: 200.0 mg/kg/injection, schedule: Q01DX001 (ip), vehicle: saline with Tween-80.
Setting [10] is: dose: 400.0 mg/kg/injection, schedule: Q01DX001 (ip), vehicle: saline with Tween-80.
The mark [11] stands for this setting: dose: 100.0 mg/kg/injection, schedule: Q01DX009 (ip), vehicle: Klucel (hydroxypropylcellulose) (HPC).
Where [12] appears, read: dose: 200.0 mg/kg/injection, schedule: Q01DX001 (ip), vehicle: saline.
Setting [13] is: dose: 50.0 mg/kg/injection, schedule: Q01DX009 (ip), vehicle: saline with Tween-80.
Setting [14] is: dose: 50.0 mg/kg/injection, schedule: Q04DX003 (ip), vehicle: saline with Tween-80.
Where [15] appears, read: dose: 100.0 mg/kg/injection, schedule: Q01DX009 (ip), vehicle: saline with Tween-80.
The mark [16] stands for this setting: dose: 100.0 mg/kg/injection, schedule: Q04DX003 (ip), vehicle: Klucel (hydroxypropylcellulose) (HPC).
[17] abbreviates: dose: 200.0 mg/kg/injection, schedule: Q04DX003 (ip), vehicle: Klucel (hydroxypropylcellulose) (HPC).

Toxic doses and inconclusive results are not listed.

Consider `CC1=CCC(=C(C)C)C1C(=O)NC1CCCCC1` (configuration not stated), for which the T/C by setting is: under setting [1], 97 % of control; (dose: 100.0 mg/kg/injection, schedule: Q01DX009 (ip), vehicle: propolene glycol) 105 % of control; (dose: 200.0 mg/kg/injection, schedule: Q01DX009 (ip), vehicle: propolene glycol) 109 % of control; under setting [2], 100 % of control; (dose: 400.0 mg/kg/injection, schedule: Q01DX009 (ip), vehicle: propolene glycol) 106 % of control.
Regarding `COc1ccc(C=Nc2ccccc2)cc1`, the T/C is, setting by setting: under setting [3], 103 % of control; under setting [4], 97 % of control; under setting [5], 97 % of control.
`CCCCCCCCS.[Ni]`: the T/C is 100 % of control (dose: 6.0 mg/kg/injection, schedule: Q01DX009 (ip), vehicle: Klucel (hydroxypropylcellulose) (HPC)); 92 % of control (dose: 12.0 mg/kg/injection, schedule: Q01DX009 (ip), vehicle: Klucel (hydroxypropylcellulose) (HPC)); 92 % of control (dose: 25.0 mg/kg/injection, schedule: Q01DX009 (ip), vehicle: Klucel (hydroxypropylcellulose) (HPC)); 102 % of control under setting [6].
Take `COC1OC(CO)C(O)C(OC)C1OC` (configuration not stated): the T/C was 93 % of control under setting [6]; 103 % of control under setting [7]; 106 % of control (dose: 400.0 mg/kg/injection, schedule: Q04DX003 (ip), vehicle: saline).
As to `Cc1cc(-c2ccccc2)c2c(C#N)cn(-c3cccc(Cl)c3)c2n1`, the T/C reads like this: under setting [8], 92 % of control; under setting [1], 87 % of control; under setting [9], 106 % of control; under setting [10], 92 % of control; under setting [2], 102 % of control.
Regarding `Cc1ccc(C(=O)CCN2CCOCC2)cc1C`, the T/C by setting is: under setting [6], 93 % of control; under setting [7], 91 % of control.
On to `CCCCCCCCCCP(=O)(CCCC)CCCC`, for which the T/C by setting is: (dose: 1.56 mg/kg/injection, schedule: Q01DX009 (ip), vehicle: Klucel (hydroxypropylcellulose) (HPC)) 92 % of control; (dose: 3.12 mg/kg/injection, schedule: Q01DX009 (ip), vehicle: Klucel (hydroxypropylcellulose) (HPC)) 95 % of control; (dose: 6.25 mg/kg/injection, schedule: Q01DX009 (ip), vehicle: Klucel (hydroxypropylcellulose) (HPC)) 97 % of control; (dose: 12.5 mg/kg/injection, schedule: Q01DX009 (ip), vehicle: Klucel (hydroxypropylcellulose) (HPC)) 95 % of control; under setting [11], 100 % of control.
As for `CC1CCC=C2C(=O)C3OC3C(C(C)(C)O)C21C` (configuration not stated), the T/C by setting is: (dose: 100.0 mg/kg/injection, schedule: Q01DX009 (ip), vehicle: acetone) 98 % of control; under setting [3], 90 % of control; (dose: 200.0 mg/kg/injection, schedule: Q01DX009 (ip), vehicle: acetone) 96 % of control; (dose: 400.0 mg/kg/injection, schedule: Q01DX009 (ip), vehicle: acetone) 100 % of control; under setting [5], 93 % of control.
For `COc1ccc(C(O)c2cc3ccccc3[nH]2)cc1` (configuration not stated), the T/C is, setting by setting: (dose: 100.0 mg/kg/injection, schedule: Q04DX002 (ip), vehicle: Klucel (hydroxypropylcellulose) (HPC)) 95 % of control; (dose: 200.0 mg/kg/injection, schedule: Q04DX002 (ip), vehicle: Klucel (hydroxypropylcellulose) (HPC)) 109 % of control; (dose: 400.0 mg/kg/injection, schedule: Q04DX002 (ip), vehicle: Klucel (hydroxypropylcellulose) (HPC)) 106 % of control.
On to `CSC1OC(C(NC(=O)N(C)N=O)C(C)O)C(O)C(O)C1O` (configuration not stated), for which the T/C is, setting by setting: under setting [6], 105 % of control; under setting [7], 118 % of control.
For the compound `Cc1cc(NC(=O)COc2ccc([N+](=O)[O-])cc2Cl)ccc1S(=O)(=O)F`, the T/C under setting [8] was 102 % of control, the T/C under setting [9] was 98 % of control and the T/C under setting [10] is 93 % of control.
In the case of `CN(C)CCCN1c2ccccc2Sc2ccc(F)cc21`, the T/C (dose: 3.12 mg/kg/injection, schedule: Q04DX003 (ip), vehicle: saline) was 94 % of control; the T/C (dose: 6.25 mg/kg/injection, schedule: Q04DX003 (ip), vehicle: saline) is 97 % of control; the T/C (dose: 12.5 mg/kg/injection, schedule: Q04DX003 (ip), vehicle: saline) is 108 % of control; the T/C (dose: 25.0 mg/kg/injection, schedule: Q04DX003 (ip), vehicle: saline) is 111 % of control.
As for `[N-]=[N+]=Nc1ccc(S(N)(=O)=O)cc1`, the T/C was 99 % of control under setting [1], 94 % of control under setting [12] and 93 % of control under setting [2].
Consider `O=P(O)(O)Cc1c(Cl)c(Cl)c(CP(=O)(O)O)c(Cl)c1Cl`, for which the T/C runs as follows: under setting [1], 107 % of control; under setting [12], 104 % of control; under setting [2], 104 % of control.
Consider `CC(=O)Nc1ccc2c(c1)C[N+](C)(C1CCCCC1)CO2` (configuration not stated), for which the T/C was 101 % of control (dose: 25.0 mg/kg/injection, schedule: Q01DX009 (ip), vehicle: saline with Tween-80); 103 % of control (dose: 25.0 mg/kg/injection, schedule: Q01DX015 (ip), vehicle: carboxymethylcellulose (CMC)); 95 % of control under setting [13]; 98 % of control (dose: 50.0 mg/kg/injection, schedule: Q01DX015 (ip), vehicle: carboxymethylcellulose (CMC)); 97 % of control under setting [14]; 92 % of control (dose: 100.0 mg/kg/injection, schedule: Q01DX001 (ip), vehicle: carboxymethylcellulose (CMC)). The T/C reads like this: under setting [15], 95 % of control; under setting [3], 100 % of control; (dose: 200.0 mg/kg/injection, schedule: Q01DX001 (ip), vehicle: carboxymethylcellulose (CMC)) 94 % of control.
Turning to `Cc1cc(Cl)ccc1NC(=O)c1cccc(C(=O)Nc2ccc(Cl)cc2C)c1`, the T/C was 97 % of control under setting [11]; 98 % of control under setting [16]; 92 % of control (dose: 200.0 mg/kg/injection, schedule: Q01DX009 (ip), vehicle: Klucel (hydroxypropylcellulose) (HPC)); 90 % of control under setting [17]; 87 % of control (dose: 400.0 mg/kg/injection, schedule: Q01DX009 (ip), vehicle: Klucel (hydroxypropylcellulose) (HPC)); 93 % of control (dose: 400.0 mg/kg/injection, schedule: Q04DX003 (ip), vehicle: Klucel (hydroxypropylcellulose) (HPC)).
As for `COc1cc(Oc2c(OC)cc(NC(C)=O)cc2OC)cc(OC)c1OC`, the T/C is, setting by setting: under setting [3], 94 % of control; under setting [4], 97 % of control; under setting [5], 95 % of control.
As for `N#COc1cccc(OCCOc2cccc(OC#N)c2)c1`, the T/C runs as follows: under setting [13], 99 % of control; under setting [14], 97 % of control; under setting [8], 89 % of control; under setting [15], 94 % of control; under setting [3], 90 % of control; under setting [9], 87 % of control. The T/C is 100 % of control (dose: 200.0 mg/kg/injection, schedule: Q01DX009 (ip), vehicle: saline with Tween-80) and 87 % of control under setting [4].
As for `O=C(c1c2c(nc3ccccc13)CCCC2)N1CCOCC1`, the T/C is 100 % of control under setting [1], 97 % of control under setting [12] and 97 % of control under setting [2].
Consider `Cc1cc(N(CCOS(C)(=O)=O)CCOS(C)(=O)=O)ccc1C=Nc1ccc(-c2csc(COc3ccccc3)n2)cc1`, for which the T/C is 116 % of control (dose: 66.0 mg/kg/injection, schedule: Q04DX003 (ip), vehicle: Klucel (hydroxypropylcellulose) (HPC)); 98 % of control under setting [16]; 158 % of control (dose: 125.0 mg/kg/injection, schedule: Q04DX003 (ip), vehicle: Klucel (hydroxypropylcellulose) (HPC)); 154 % of control (dose: 150.0 mg/kg/injection, schedule: Q04DX003 (ip), vehicle: Klucel (hydroxypropylcellulose) (HPC)); 151 % of control under setting [17].
Take `CC1CC2CCC1C2O` (configuration not stated): the T/C (dose: 37.5 mg/kg/injection, schedule: Q04DX003 (ip), vehicle: saline) is 100 % of control; the T/C (dose: 75.0 mg/kg/injection, schedule: Q04DX003 (ip), vehicle: saline) is 97 % of control; the T/C (dose: 150.0 mg/kg/injection, schedule: Q04DX003 (ip), vehicle: saline) is 90 % of control.
